Measured values: ChEMBL document CHEMBL5257089, “Gamabufotalin Induces Apoptosis and Cytoprotective Autophagy through the mTOR Signaling Pathway in Hepatocellular Carcinoma” (J Nat Prod, 2023)
Activity calls are given as the source filed them. The calls are words filed in the database; no cut-off is given here.

Experiments:
Hep 3B2 [1] = assay: Induction of apoptosis in human Hep3B cells assessed as viable cells at 10 nM incubated for 48 hrs by Annexin V-FITC/PI staining based flow cytometry method (reference value: 94.0%); type: functional; conditions: read-out: Activity
Huh-7 [2] = assay: Induction of apoptosis in human Huh-7 cells assessed as late apoptotic cells at 10 nM incubated for 48 hrs by Annexin V-FITC/PI staining based flow cytometry method (reference value: 4.7%); type: functional
Huh-7 [3] = assay: Induction of apoptosis in human Huh-7 cells assessed as late apoptotic cells at 10 nM incubated for 48 hrs in presence of gamabufotalin by Annexin V-FITC/PI staining based flow cytometry method (reference value: 4.7%); type: functional
Hep 3B2 [4] = assay: Induction of apoptosis in human Hep3B cells assessed as necrotic cells at 10 nM incubated for 48 hrs in presence of gamabufotalin by Annexin V-FITC/PI staining based flow cytometry method (reference value: 1.2%); type: functional
Hep 3B2 [5] = assay: Induction of apoptosis in human Hep3B cells assessed as increase in bax level at 10 nM incubated for 48 hrs in presence of gamabufotalin by immunoblot analysis; type: functional, cell-based
Huh-7 [6] = assay: Induction of apoptosis in human Huh-7 cells assessed as viable cells at 10 nM incubated for 48 hrs in presence of gamabufotalin by Annexin V-FITC/PI staining based flow cytometry method (reference value: 91.5%); type: functional; conditions: read-out: Activity
Huh-7 [7] = assay: Induction of apoptosis in human Huh-7 cells assessed as increase in cleaved caspase-3 level at 10 nM incubated for 48 hrs in presence of gamabufotalin by immunoblot analysis; type: functional, cell-based
Huh-7 [8] = assay: Induction of autophagic flux in human Huh-7 cells assessed as rescue of LC3-II accumulation at 10 uM incubated for 48 hrs in presence of gamabufotalin by Western blot analysis; type: functional, cell-based
Hep 3B2 [9] = assay: Induction of apoptosis in human Hep3B cells assessed as increase in cleaved caspase-3 level at 10 nM incubated for 48 hrs in presence of gamabufotalin by immunoblot analysis; type: functional, cell-based
Hep 3B2 [10] = assay: Induction of autophagy in human Hep3B cells assessed as rescue of ULK1 phosphorylation level at upto 25 nM incubated for 48 hrs in presence of chloroquine by immunoblot method; type: functional, cell-based
Huh-7 [11] = assay: Induction of autophagic flux in human Huh-7 cells assessed as increase in high electron density vesicles at 25 nM incubated for 48 hrs by transmission electron microscopic analysis; type: functional, cell-based
Hep 3B2 [12] = assay: Induction of autophagy in human Hep3B cells assessed as reduction in ULK1 phosphorylation level incubated for 48 hrs by immunoblot method; type: functional, cell-based; conditions: dose 0-25 nM
[13] = Toxicity in mouse assessed as effect on liver at 5 mg/kg,ip administered every second day for 3 weeks by H and E staining based microscopic method; type: organism-based; conditions: in vivo, 504 h
Huh-7 [14] = assay: Induction of apoptosis in human Huh-7 cells assessed as increase in cleaved bax level at 25 nM incubated for 48 hrs in presence of chloroquine by immunoblot analysis; type: functional, cell-based
Huh-7 [15] = assay: Induction of apoptosis in human Huh-7 cells assessed as increase in PARP expression at upto 25 nM incubated for 48 hrs by Western blot analysis; type: functional, cell-based
Hep 3B2 [16] = assay: Induction of autophagic flux in human Hep3B cells harbouring mCherry-egfp-LC3 assessed as increase in red puncta at 25 nM incubated for 15 mins by laser scanning confocal microscopic analysis; type: functional, cell-based
Huh-7 [17] = assay: Induction of autophagy in human Huh-7 cells assessed as restoration of mTOR phosphorylation expression at 25 uM incubated for 48 hrs in presence of 4,6-dimorpholino-N-(4-nitrophenyl)-1,3,5-triazin-2-amine by immunoblot analysis; type: functional, cell-based
Hep 3B2 [18] = assay: Induction of apoptosis in human Hep3B cells assessed as upregulation of cleaved caspase-3 level […] incubated for 48 hrs in presence of 4,6-dimorpholino-N-(4-nitrophenyl)-1,3,5-triazin-2-amine by immunoblot analysis; type: functional, cell-based
Hep 3B2 [19] = assay: Induction of apoptosis in human Hep3B cells assessed as early apoptotic cells at 15 nM incubated for 48 hrs by Annexin V-FITC/PI staining based flow cytometry method (reference value: 3.9%); type: functional
Hep 3B2 [20] = assay: Antitumor activity against human Hep3B cells xenografted in nude mouse model assessed as upregulation of LC3I expression at 5 mg/kg,ip administered every second day for 3 weeks by Western blot analysis; type: functional, organism-based
Huh-7 [21] = assay: Induction of apoptosis in human Huh-7 cells assessed as necrotic cells at 20 nM incubated for 48 hrs by Annexin V-FITC/PI staining based flow cytometry method (reference value: 95.4%); type: functional
Hep 3B2 [22] = assay: Antitumor activity against human Hep3B cells xenografted in nude mouse model assessed as downregulation of m-TOR phosphorylation expression expression at 5 mg/kg,ip administered every second day for 3 weeks by Western blot analysis; type: functional, organism-based
Huh-7 [23] = assay: Induction of apoptosis in human Huh-7 cells assessed as necrotic cells at 25 nM incubated for 48 hrs by Annexin V-FITC/PI staining based flow cytometry method (reference value: 0.7%); type: functional
Hep 3B2 [24] = assay: Induction of apoptosis in human Hep3B cells assessed as early apoptotic cells at 25 nM incubated for 48 hrs in presence of chloroquine by Annexin V-FITC/PI staining based flow cytometry method (reference value: 1.3%); type: functional
Hep 3B2 [25] = assay: Induction of apoptosis in human Hep3B cells assessed as condensed nuclei at […] incubated for 48 hrs by Hoechst33258 staining based fluorescence microscopy; type: functional, cell-based
Huh-7 [26] = assay: Induction of apoptosis in human Huh-7 cells assessed as […] in Bax level at upto 25 nM incubated for 48 hrs by Western blot analysis; type: functional, cell-based
Huh-7 [27] = assay: Induction of apoptosis in human Huh-7 cells assessed as increase in caspase-3 expression at upto 25 nM incubated for 48 hrs by Western blot analysis; type: functional, cell-based
Hep 3B2 [28] = assay: Induction of autophagic flux in human Hep3B cells harbouring mCherry-egfp-LC3 assessed as increase in yellow puncta at 25 nM incubated for 15 mins by laser scanning confocal microscopic analysis; type: functional, cell-based
Huh-7 [29] = assay: Induction of apoptosis in human Huh-7 cells assessed as upregulation of cleaved PARP level […] incubated for 48 hrs in presence of 4,6-dimorpholino-N-(4-nitrophenyl)-1,3,5-triazin-2-amine by immunoblot analysis; type: functional, cell-based
Hep 3B2 [30] = assay: Induction of apoptosis in human Hep3B cells assessed as increase in cleaved caspase-3 expression at upto 25 nM incubated for 48 hrs by Western blot analysis; type: functional, cell-based
[31] = Toxicity in mouse assessed as effect on serum ALT level at 5 mg/kg,ip administered every second day for 3 weeks by H and E staining based microscopic method; type: organism-based; conditions: in vivo, 504 h
[32] = Toxicity in mouse assessed as effect on body weight at 5 mg/kg,ip administered every second day for 3 weeks; type: organism-based; conditions: in vivo, 504 h
Huh-7 [33] = assay: Induction of apoptosis in human Huh-7 cells assessed as reduction in Bcl-2 level at 25 nM incubated for 48 hrs in presence of chloroquine by immunoblot analysis; type: functional, cell-based
Hep 3B2 [34] = assay: Induction of autophagy in human Hep3B cells assessed as reduction in mTOR phosphorylation level incubated for 48 hrs by immunoblot method; type: functional, cell-based; conditions: dose 0-25 nM
Hep 3B2 [35] = assay: Induction of autophagic flux in human Hep3B cells assessed as decrease in p62 expression at upto 25 nM incubated for 48 hrs by Western blot analysis; type: functional, cell-based

Work on `CCN(CC)CCCC(C)Nc1ccnc2cc(Cl)ccc12` (stereo not given) [CHLOROQUINE] yielded a viability at 0.01 µM (Hep 3B2 [1]) of 93.6%, an Activity (Huh-7 [2]) of 4.9% and an Activity (Huh-7 [3]) of 19.1%. For the same compound, the Activity (Hep 3B2 [4]) was 0.8%, the Activity (Hep 3B2 [5]) was “Active” and the viability at 0.01 µM (Huh-7 [6]) was 65.4%. The Activity (Huh-7 [7]) was “Active”, the Activity (Huh-7 [8]) was “Active” and the Activity (Hep 3B2 [9]) was “Active”.

In the case of `C[C@]12CC[C@H](O)C[C@H]1CC[C@@H]1[C@@H]2[C@H](O)C[C@]2(C)[C@@H](c3ccc(=O)oc3)CC[C@]12O` [GAMABUFOTALIN], the Activity (Hep 3B2 [10]) is reported as “Active”, the Activity (Huh-7 [11]) is reported as “Active” and the Activity (Hep 3B2 [12]) is reported as “Dose-Dependent Effect”. For the same compound, the Activity [13] was “Non-Toxic”, the Activity (Huh-7 [14]) was “Active” and the Activity (Huh-7 [15]) was “Active”. For the same compound, the Activity (Hep 3B2 [16]) was “Active”, the Activity (Huh-7 [17]) was “Active” and the Activity (Hep 3B2 [18]) was “Active”. The Activity (Hep 3B2 [19]) was 6.8%, the Activity (Hep 3B2 [20]) was “Active” and the Activity (Huh-7 [21]) was 60.8%. For the same compound, the Activity (Hep 3B2 [22]) was “Active”, the Activity (Huh-7 [23]) was 6.3% and the Activity (Hep 3B2 [24]) was 17.9%. For the same compound, the Activity (Hep 3B2 [25]) was “Active”, the Activity (Huh-7 [26]) was “Active” and the Activity (Huh-7 [27]) was “Active”. For the same compound, the Activity (Hep 3B2 [28]) was “Active”, the Activity (Huh-7 [29]) was “Active” and the Activity (Hep 3B2 [30]) was “Active”. The Activity [31] was “Non-Toxic”, the Activity [32] was “Non-Toxic” and the Activity (Huh-7 [33]) was “Active”. The Activity (Hep 3B2 [34]) was “Dose-Dependent Effect” and the Activity (Hep 3B2 [35]) was “Active”.
